Laboratory results as given in the supplement of paper PMC5579334.
± gives the standard deviation of the averaged measurements.

Legend:
[1] = tested on: S1507-2; assay: drug sensitivity score (DSS, CellTox-Green cytotoxicity, 72 h) (DSS (dimensionless)); higher = more cytotoxic; extreme values may be limits of the assay
Procedure, shortened: (§1)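 For 72 h at 37 °C, MPNST cell lines and primary human Schwann cells were exposed in 384-well plates to five 10-fold compound dilutions. CellTox-Green, added before seeding at a final 1:1000 dilution, gave fluorescence from DNA released by disrupted cells. Signals were scaled to vehicle and positive-control wells, cultures failing plate quality control were left out, and four-parameter logistic fits were applied. Relative IC50 and drug sensitivity score were derived from the fits, with IC50 censored at the top concentration.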

[2] = tested on: HSC2 (primary human Schwann cells); assay: as above
Procedure, shortened: as §1

[3] = tested on: HS-PSS; assay: as above
Procedure, shortened: as §1

[4] = tested on: ST8814; assay: as above
Procedure, shortened: as §1

[5] = tested on: HSC1 (primary human Schwann cells); assay: as above
Procedure, shortened: as §1

[6] = tested on: STS26T; assay: as above
Procedure, shortened: as §1

[7] = tested on: S462; assay: drug sensitivity score (DSS, CellTiter-Glo viability, 72 h) (DSS (dimensionless)); higher = more sensitive; extreme values may be limits of the assay
Procedure, shortened: (§2)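 MPNST cell lines and primary human Schwann cells were seeded at 750–1000 cells per well into 384-well plates preprinted with each compound at five concentrations in 10-fold steps, then incubated 72 h at 37 °C, 5% CO2. CellTiter-Glo ATP luminescence gave viability, scaled between vehicle and positive-control wells, with duplicates averaged where present. Curves were fitted with a four-parameter logistic model. Percent inhibition refers to the top concentration, while drug sensitivity score and relative IC50, censored at the top concentration, come from these fits.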

[8] = tested on: S1507-2; assay: as above
Procedure, shortened: as §2

[9] = tested on: HSC2 (primary human Schwann cells); assay: as above
Procedure, shortened: as §2

[10] = tested on: HS-PSS; assay: as above
Procedure, shortened: as §2

[11] = tested on: ST8814; assay: as above
Procedure, shortened: as §2

[12] = tested on: HSC1 (primary human Schwann cells); assay: as above
Procedure, shortened: as §2

[13] = tested on: STS26T; assay: as above
Procedure, shortened: as §2

[14] = tested on: HS-Sch-2; assay: as above
Procedure, shortened: as §2

[15] = tested on: YST-1; assay: as above
Procedure, shortened: as §2

[16] = tested on: S462; assay: % inhibition of CellTiter-Glo viability at highest tested concentration (72 h), relative to DMSO and benzethonium chloride controls; higher = more inhibition
Procedure, shortened: as §2

[17] = tested on: S1507-2; assay: as above
Procedure, shortened: as §2

[18] = tested on: HSC2 (primary human Schwann cells); assay: as above
Procedure, shortened: as §2

[19] = tested on: HS-PSS; assay: as above
Procedure, shortened: as §2

[20] = tested on: ST8814; assay: as above
Procedure, shortened: as §2

[21] = tested on: HSC1 (primary human Schwann cells); assay: as above
Procedure, shortened: as §2

[22] = tested on: STS26T; assay: as above
Procedure, shortened: as §2

[23] = tested on: HS-Sch-2; assay: as above
Procedure, shortened: as §2

[24] = tested on: YST-1; assay: as above
Procedure, shortened: as §2

Row | Compound | drug sensitivity score [1] | drug sensitivity score [2] | drug sensitivity score [3] | drug sensitivity score [4] | drug sensitivity score [5] | drug sensitivity score [6] | drug sensitivity score [7] | drug sensitivity score [8] | drug sensitivity score [9] | drug sensitivity score [10] | drug sensitivity score [11] | drug sensitivity score [12] | drug sensitivity score [13] | drug sensitivity score [14] | drug sensitivity score [15] | % inhibition [16] [%] | % inhibition [17] [%] | % inhibition [18] [%] | % inhibition [19] [%] | % inhibition [20] [%] | % inhibition [21] [%] | % inhibition [22] [%] | % inhibition [23] [%] | % inhibition [24] [%]
1 | CN[C@@H]1C[C@H]2O[C@@](C)([C@@H]1OC)n1c3ccccc3c3c4c(c5c6ccccc6n2c5c31)C(=O)N[C@H]4O [UCN-01] (max concentration tested 10000 nM) | 15.35 ± 0.12 | 21.7 | 6.62 | 13.8 | 15.9 | 29.4 | 31.03 ± 0.038 | 32.23 ± 0.17 | 30.9 | 22.1 | 27.3 | 27.8 | 27.9 | 26.7 | 21.8 | 105.6 ± 0.5 | 105 ± 1.4 | 103 | 100 | 105 | 102 | 104 | 102 | 89.8
2 | CO[C@H]1C[C@@H]2CC[C@@H](C)[C@@](O)(O2)C(=O)C(=O)N2CCCC[C@H]2C(=O)O[C@H]([C@H](C)C[C@@H]2CC[C@@H](OCCO)[C@H](OC)C2)CC(=O)[C@H](C)/C=C(\C)[C@@H](O)[C@@H](OC)C(=O)[C@H](C)C[C@H](C)/C=C/C=C/C=C/1C [Everolimus] (max concentration tested 100 nM) | 6.46 ± 9.1 | 0 | 0 | 0 | 0 | 0 | 8.44 ± 0.54 | 6.7 ± 1.1 | 15.8 | 3.56 | 7.31 | 17.2 | 15.6 | 3.17 | 4.45 | 29.4 ± 7.3 | 31 ± 1.7 | 48.5 | 23.8 | 28.3 | 44.5 | 45.4 | 18.4 | 38.7
3 | CCn1c(-c2nonc2N)nc2cnc(Oc3cccc(NC(=O)c4ccc(OCCN5CCOCC5)cc4)c3)cc21 (max concentration tested 10000 nM) | 2.06 ± 2.4 | 0.268 | 0 | 0 | 1.62 | 5.6 | 3.9 ± 0.086 | 3.11 ± 0.81 | 18.1 | 4.2 | 2.57 | 16.9 | 5.65 | 6.03 | 6.84 | 43.6 ± 3.2 | 36.1 ± 2.2 | 71.3 | 47.1 | 34.9 | 70.6 | 50.7 | 58 | 49.8
4 | Oc1ccc2c(c1)CC[C@H](c1ccccc1)[C@@H]2c1ccc(OCCN2CCCC2)cc1 [Lasofoxifene] (max concentration tested 1000 nM) | 0 | 0 | 0 | 0 | 0 | 0 | 0.222 ± 0.31 | 0 | 0 | 1.43 | 0 | 0 | 0 | 0 | 0 | 10.5 ± 10 | 6.44 ± 1.6 | 9.44 | 21.2 | -2.62 | 17.1 | 4.5 | 8.81 | -1.77
5 | CC[C@H](CO)Nc1nc(NCc2ccccc2)c2ncn(C(C)C)c2n1 [Seliciclib] (max concentration tested 10000 nM) | 0 | 0 | 0.1 | 0 | 0 | 0 | 1.26 ± 0.44 | 0 | 1.23 | 2.39 | 0 | 0.597 | 0.759 | 0.52 | 0 | 32.2 ± 3.6 | -2.22 ± 4.7 | 34.7 | 30.8 | 5.24 | 22.5 | 23.2 | 22.6 | 5.74
6 | COc1c(C)cnc(Cn2cnc3c(Cl)nc(N)nc32)c1C [BIIB021] (max concentration tested 10000 nM) | 15.8 ± 2.9 | 19.7 | 5.44 | 9.2 | 20 | 11.8 | 20.083 ± 0.0076 | 18.1 ± 1.3 | 17.6 | 14.4 | 17.8 | 16.2 | 16.9 | 24.5 | 15 | 97 ± 1.1 | 98.34 ± 0.36 | 96.9 | 88 | 96.1 | 96.4 | 90.3 | 99.9 | 84.3
7 | CCCCCOC(=O)Nc1nc(=O)n([C@@H]2O[C@H](C)[C@@H](O)[C@H]2O)cc1F [Capecitabine] (max concentration tested 10000 nM) | 0 | 0 | 0 | 0 | 0 | 0 | 0 | 0 | 0 | 0 | 0 | 0 | 0.0023 | 0 | 0 | -4.78 ± 2.1 | 5.66 ± 1.9 | -3.4 | -4.86 | -8.14 | 1.09 | 12 | -4.92 | -6.84
8 | COc1cc2ncnc(Nc3ccc(F)c(Cl)c3)c2cc1OCCCN1CCOCC1 [Gefitinib] (max concentration tested 10000 nM) | 2.49 ± 3.5 | 0 | 0 | 5.95 | 0 | 0.896 | 1.43 ± 0.69 | 2.3 ± 1.1 | 3.41 | 5.27 | 3.34 | 2.58 | 2.37 | 4.94 | 5.06 | 39.9 ± 12 | 49.1 ± 12 | 54.7 | 61.4 | 68.4 | 46.2 | 53.6 | 60.2 | 46.2
9 | COC(=O)c1ccc2c(c1)NC(=O)/C2=C(\Nc1ccc(N(C)C(=O)CN2CCN(C)CC2)cc1)c1ccccc1 [Nintedanib] (max concentration tested 10000 nM) | 0 | 0 | 0.43 | 0 | 0 | 0 | 0 | 0 | 0 | 1.83 | 0 | 0 | 0 | 2.94 | 3.79 | -7.48 ± 1.2 | -3.03 ± 4 | -4.16 | 45.7 | 2.22 | 0.553 | 2.06 | 63.5 | 39.7
10 | CCc1cnn2c(NCc3ccc[n+]([O-])c3)cc(N3CCCC[C@H]3CCO)nc12 [Dinaciclib] (max concentration tested 1000 nM) | 2.29 ± 3.1 | 7.57 | 5.02 | 5.45 | 5.96 | 14.8 | 24.4 ± 0.71 | 15 ± 1.9 | 19.9 | 21 | 15 | 16.9 | 21.6 | 25.1 | 25.2 | 90.8 ± 2.7 | 76.6 ± 1.6 | 86.4 | 84.2 | 80.5 | 83.5 | 92.7 | 101 | 99.5
11 | Cc1ccc(C(=O)N(CCCN)[C@@H](c2oc3cc(Cl)ccc3c(=O)c2Cc2ccccc2)C(C)C)cc1 (max concentration tested 100 nM) | 0 | 0 | 0 | 0 | 0 | 0 | 0 | 0.0057 ± 0.0081 | 0 | 6.42 | 0 | 0 | 0 | 19 | 18.9 | -2.08 ± 8.3 | 5.6 ± 6.5 | -19.5 | 26.9 | 5.16 | 7.2 | 2.24 | 87.1 | 76
12 | COc1cccc2c1C(=O)c1c(O)c3c(c(O)c1C2=O)C[C@@](O)(C(C)=O)C[C@@H]3O[C@H]1C[C@H](N)[C@H](O)[C@H](C)O1 [Daunorubicin] (max concentration tested 1000 nM) | 0 | 3.16 | 0 | 1.13 | 2.35 | 3.13 | 14.9 ± 0.27 | 9.24 ± 0.51 | 12.7 | 9.45 | 9.95 | 10.4 | 12.9 | 10.6 | 17.9 | 98.64 ± 0.44 | 96.11 ± 0.088 | 101 | 88.2 | 88.3 | 99.9 | 98.5 | 102 | 101
13 | CNC(=O)c1ccc(N2C(=S)N(c3ccc(C#N)c(C(F)(F)F)c3)C(=O)C23CCC3)cc1F [RD162] (max concentration tested 10000 nM) | 2.37 ± 3.4 | 0 | 0 | 0 | 0 | 0 | 0 | 1.24 ± 1.8 | 0 | 0 | 0 | 0.0127 | 0 | 0 | 0 | -0.791 ± 7.8 | 10.7 ± 20 | 8.13 | -0.07 | 10 | 11.2 | 4.23 | 9.66 | 7.83
